From PubChem BioAssay AID1963433 (Molecular Pharmacology Branch, DTP, NCI, 2024)
One block for each compound: values may come before it.

Test system: 772245-204-R-J1-PDC complex spheroid growth
Assay: Anticancer human tumor 772245-204-R-J1-PDC patient-derived rhabdomyosarcoma cell line growth inhibition [Asc]
Details: for IC50: curve of first compound; for viability, T/C: stronger effect = lower value
Summary of the method: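 Stromal components (HUVEC and hMSC) are co-assembled with the cancer cells into multicellular spheroids. Drugs are then added singly or paired, at concentrations falling by half-log increments from a clinically achievable maximum, capped at 10 microM without known Cmax.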

[1] = second compound 0.1 µM, first compound 0.0316 µM
[2] = second compound 0.1 µM, first compound 0.1 µM
[3] = second compound 0.1 µM, first compound 0.316 µM
[4] = second compound 0.1 µM, first compound 1 µM
[5] = second compound 0.1 µM, first compound 3.16 µM
[6] = second compound 0.1 µM, first compound 10 µM
[7] = second compound 0.316 µM, first compound 0.0316 µM
[8] = second compound 0.316 µM, first compound 0.1 µM
[9] = second compound 0.316 µM, first compound 0.316 µM
[10] = second compound 0.316 µM, first compound 1 µM
[11] = second compound 0.316 µM, first compound 3.16 µM
[12] = second compound 0.316 µM, first compound 10 µM
[13] = second compound 1 µM, first compound 0.0316 µM
[14] = second compound 1 µM, first compound 0.1 µM
[15] = second compound 1 µM, first compound 0.316 µM
[16] = second compound 1 µM, first compound 1 µM
[17] = second compound 1 µM, first compound 3.16 µM
[18] = second compound 1 µM, first compound 10 µM
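Note: compound exposure lasted seven days.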
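Throughout, for viability, T/C: 100% = DMSO vehicle control viability.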

- IC50 (second compound 0.1 µM): 1.57 µM
- IC50 (second compound 0.316 µM): 0.772 µM
- IC50 (second compound 1 µM): < 0.0316 µM
- IC50 (second compound 3.16 µM): < 0.0316 µM
- IC50 (second compound 10 µM): < 0.0316 µM
SMILES: C=C(F)C(=O)N1CCN(c2nc(OCC3CCCN3C)nc3c2CCN(c2cccc4cccc(Cl)c24)C3)CC1CC#N (stereo not given) + Cc1c(S(C)(=O)=O)c(-c2cc(F)cc(N3CCN(c4ccc(NS(=O)(=O)c5ccc(NC(CCN6CCC(C(=O)OCCCP(=O)(O)O)CC6)CSc6ccccc6)c(S(=O)(=O)C(F)(F)F)c5)cc4)CC3)c2)c(-c2ccc(Cl)cc2)n1C(C)C
- viability, T/C [1]: 79%
- viability, T/C [2]: 77.7%
- viability, T/C [3]: 72.6%
- viability, T/C [4]: 70.7%
- viability, T/C [5]: 18.1%
- viability, T/C [6]: 0.14%
- viability, T/C [7]: 60.4%
- viability, T/C [8]: 65.2%
- viability, T/C [9]: 52.3%
- viability, T/C [10]: 47.8%
- viability, T/C [11]: 3.54%
- viability, T/C [12]: 0.12%
- viability, T/C [13]: 40%
- viability, T/C [14]: 45.9%
- viability, T/C [15]: 35.4%
- viability, T/C [16]: 30.9%
- viability, T/C [17]: 2.95%
- viability, T/C [18]: 0.1%
- viability, T/C (second compound 3.16 µM, first compound 0.0316 µM): 35.7%
- viability, T/C (second compound 3.16 µM, first compound 0.1 µM): 39.7%
- viability, T/C (second compound 3.16 µM, first compound 0.316 µM): 45.7%
- viability, T/C (second compound 3.16 µM, first compound 1 µM): 20.1%
- viability, T/C (second compound 3.16 µM, first compound 3.16 µM): 1.47%
- viability, T/C (second compound 3.16 µM, first compound 10 µM): 0.11%
- viability, T/C (second compound 10 µM, first compound 0.0316 µM): 43.3%
- viability, T/C (second compound 10 µM, first compound 0.1 µM): 39.4%
- viability, T/C (second compound 10 µM, first compound 0.316 µM): 37.3%
- viability, T/C (second compound 10 µM, first compound 1 µM): 17.6%
- viability, T/C (second compound 10 µM, first compound 3.16 µM): 1.02%
- viability, T/C (second compound 10 µM, first compound 10 µM): 0.18%

- IC50 (second compound 0.01 µM): 5.51 µM
- IC50 (second compound 0.0316 µM): 6.3 µM
- IC50 (second compound 0.1 µM): 4.84 µM
- IC50 (second compound 0.316 µM): 4.88 µM
- IC50 (second compound 1 µM): 4.84 µM
SMILES: C=C(F)C(=O)N1CCN(c2nc(OCC3CCCN3C)nc3c2CCN(c2cccc4cccc(Cl)c24)C3)CC1CC#N (stereo not given) + CNC(C)C(=O)NC1CN(S(=O)(=O)c2cccc(S(=O)(=O)N3CCC4CCC(C(=O)NC(c5ccccc5)c5ccccc5)N4C(=O)C(NC(=O)C(C)NC)C3)c2)CCC2CCC(C(=O)NC(c3ccccc3)c3ccccc3)N2C1=O
- viability, T/C (second compound 0.01 µM, first compound 0.0316 µM): 98.8%
- viability, T/C (second compound 0.01 µM, first compound 0.1 µM): 102%
- viability, T/C (second compound 0.01 µM, first compound 0.316 µM): 91.3%
- viability, T/C (second compound 0.01 µM, first compound 1 µM): 108%
- viability, T/C (second compound 0.01 µM, first compound 3.16 µM): 87.2%
- viability, T/C (second compound 0.01 µM, first compound 10 µM): 9.53%
- viability, T/C (second compound 0.0316 µM, first compound 0.0316 µM): 112%
- viability, T/C (second compound 0.0316 µM, first compound 0.1 µM): 105%
- viability, T/C (second compound 0.0316 µM, first compound 0.316 µM): 97.5%
- viability, T/C (second compound 0.0316 µM, first compound 1 µM): 99.7%
- viability, T/C (second compound 0.0316 µM, first compound 3.16 µM): 97.6%
- viability, T/C (second compound 0.0316 µM, first compound 10 µM): 18%
- viability, T/C [1]: 100%
- viability, T/C [2]: 91.1%
- viability, T/C [3]: 95%
- viability, T/C [4]: 94.4%
- viability, T/C [5]: 79.2%
- viability, T/C [6]: 0.25%
- viability, T/C [7]: 98%
- viability, T/C [8]: 94.1%
- viability, T/C [9]: 84.4%
- viability, T/C [10]: 105%
- viability, T/C [11]: 80.2%
- viability, T/C [12]: 0.26%
- viability, T/C [13]: 93.5%
- viability, T/C [14]: 106%
- viability, T/C [15]: 87.1%
- viability, T/C [16]: 82.9%
- viability, T/C [17]: 81.4%
- viability, T/C [18]: 0.98%
